Experimental data published in patent US20240125803A1, “NOVEL DIAGNOSTIC AND METHOD OF SCREENING THERAPEUTICS FOR FIBROTIC CONDITIONS” (BLR-Bio, LLC, priority 2022, published 2024).

Columns and labels:
[1] = tested on: fibrosis-related gene expression; assay: Bleomycin-induced skin fibrosis, 21 days: bulk RNAseq of skin; assay type: in vivo, C57BL/6J mice; details: d21, n=2
Protocol: 6-week-old C57BL/6J mice were subjected to bleomycin treatment (subcutaneous injection 0.1 U/100 μl/mouse daily) in the presence or absence of BLR200 (intraperitoneal injection 10 μg/kg every other day) for 21 days. For a reversal of fibrosis experiment, BLR200 treatment was started at d14 of bleomycin treatment and continued until d28. Fibrosis was assessed by histological, and unbiased bulk RNAseq, real-time polymerase chain reaction and spatial transcriptomic analyses.
Unbiased cluster analysis of bulk RNAseq data was performed using the Database for Annotation, Visualization and Integrated Discovery (DAVID). Clusters relate to fibrosis with the enrichment score and #of genes greater than 1.0 and 10, respectively, were chosen. n=2.

CCN2 = target: T1, CCN2 (Mus musculus, UniProt P29268); details: Makino et al., 2017; cited from earlier work
T1 construct: FG-3019 treatment mitigated Ang II-induced fibrosis, as visualized by a reduction in skin thickness; host or cells: animals of the Ang II-induced dermal fibrosis model (endogenous protein)
T1 sequence (P29268 26-348): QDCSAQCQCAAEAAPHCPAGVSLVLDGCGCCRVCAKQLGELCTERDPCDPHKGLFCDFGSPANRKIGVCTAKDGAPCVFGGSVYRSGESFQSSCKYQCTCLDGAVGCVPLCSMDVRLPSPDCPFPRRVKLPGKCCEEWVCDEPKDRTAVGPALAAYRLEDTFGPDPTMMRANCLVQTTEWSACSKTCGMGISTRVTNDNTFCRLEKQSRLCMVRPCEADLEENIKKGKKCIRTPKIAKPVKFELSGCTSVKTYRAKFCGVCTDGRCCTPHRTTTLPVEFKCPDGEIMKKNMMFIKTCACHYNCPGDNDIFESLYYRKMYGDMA

[2] = tested on: fibrosis in diabetic nephropathy; details: Riser et al., 2014; cited from earlier work

In the case of Bleomycin sulfate, the “Fold Chance, ADAM10” value [1] is reported as 3.68 Fold, the “Fold Chance, ADAMTS4” value [1] is reported as 4.29 Fold and the “Fold Chance, ADAMTS9” value [1] is reported as 4.46 Fold. The “Fold Chance, ADAMTS20” value [1] was 11.3 Fold, the “Fold Chance, CDH11” value [1] was 11.3 Fold and the “Fold Chance, CITED2” value [1] was 6.43 Fold. The “Fold Chance, ELK1” value [1] was 3.69 Fold, the “Fold Chance, FN1” value [1] was 5.12 Fold and the “Fold Chance, FZD6” value [1] was 22.4 Fold. For the same molecule, the “Fold Chance, ITGA6” value [1] was 4.46 Fold, the “Fold Chance, ITGAE” value [1] was 3.68 Fold and the “Fold Chance, PECAM1” value [1] was 4.29 Fold. For the same molecule, the “Fold Chance, SMAD3” value [1] was 3.07 Fold, the “Fold Chance, TNC” value [1] was 3.13 Fold and the “Fold Chance, WNT4” value [1] was 3.07 Fold. The “Fold Chance, WNT7a” value [1] was 5.81 Fold and the “Fold Chance, YAP1 (Yes-associated protein 1)” value [1] was 8.61 Fold.

For “FG-3019: monoclonal antibody targeting CCN2”, the “Ang II-induced fibrosis (skin thickness, collagen deposition, number of αSMA-expressing myofibroblasts)” value (CCN2) is listed as “mitigated”.

B1: rhCCN3: recombinant human CCN3 (protein, UniProt P48745 32-357, looked up)
CCN family member 3: TQRCPPQCPGRCPATPPTCAPGVRAVLDGCSCCLVCARQRGESCSDLEPCDESSGLYCDRSADPSNQTGICTAVEGDNCVFDGVIYRSGEKFQPSCKFQCTCRDGQIGCVPRCQLDVLLPEPNCPAPRKVEVPGECCEKWICGPDEEDSLGGLTLAAYRPEATLGVEVSDSSVNCIEQTTEWTACSKSCGMGFSTRVTNRNRQCEMLKQTRLCMVRPCEQEPEQPTDKKGKKCLRTKKSLKAIHLQFKNCTSLHTYKPRFCGVCSDGRCCTPHNTKTIQAEFQCSPGQIVKKPVMVIGTCTCHTNCPKNNEAFLQELELKTTRGKM
For B1, the “fibrosis in a mouse model of diabetic nephropathy” value [2] is listed as “block and reverse fibrosis”.
